Assay results taken from PubChem BioAssay (NCI).
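All cell lines were grown in 96-well plates and treated with compound for 48 hours. GI50 = concentration required for 50% inhibition of growth. TGI: total growth inhibition.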

Legend:
Assay in all cases: NCI anticancer screen, dose series, 48 h
M14 melanoma = test system: M14 melanoma
ACHN renal = test system: ACHN renal
SNB-19 CNS = test system: SNB-19 CNS
DU-145 prostate = test system: DU-145 prostate
OVCAR-3 ovarian = test system: OVCAR-3 ovarian
MDA-N = test system: MDA-N
EKVX NSCLC = test system: EKVX NSCLC
KM12 colon = test system: KM12 colon
A498 renal = test system: A498 renal
RPMI-8226 leukemia = test system: RPMI-8226 leukemia
IGROV1 ovarian = test system: IGROV1 ovarian

CCOC(=O)C(NC(=O)N(C1=NCC(C)S1)C1CCCCC1)(OC)C(F)(F)F (stereo not given) showed a TGI (M14 melanoma) greater than 100 µM, a TGI (ACHN renal) of 89.9 µM and a TGI (SNB-19 CNS) greater than 100 µM. For the same compound, the TGI (DU-145 prostate) was greater than 100 µM, the TGI (OVCAR-3 ovarian) was 71.1 µM and the TGI (MDA-N) was greater than 100 µM. The TGI (EKVX NSCLC) was greater than 100 µM, the TGI (KM12 colon) was greater than 100 µM and the TGI (A498 renal) was 44.4 µM.
With COc1nc2c(c(=O)n1C)N[C@H]1[C@H](OC(C)=O)[C@@H](OC(C)=O)CO[C@H]1N2 the TGI (M14 melanoma) was greater than 100 µM, the TGI (ACHN renal) was greater than 100 µM and the TGI (SNB-19 CNS) was greater than 100 µM. For the same compound, the TGI (DU-145 prostate) was greater than 100 µM, the TGI (OVCAR-3 ovarian) was greater than 100 µM and the TGI (MDA-N) was greater than 100 µM. For the same compound, the TGI (EKVX NSCLC) was greater than 100 µM, the TGI (KM12 colon) was greater than 100 µM and the TGI (RPMI-8226 leukemia) was greater than 100 µM. For the same compound, the TGI (IGROV1 ovarian) was greater than 100 µM and the TGI (A498 renal) was greater than 100 µM.
In the case of c1ccc(CCNCc2ccco2)nc1, the TGI (M14 melanoma) is reported as greater than 100 µM, the TGI (ACHN renal) is reported as greater than 100 µM and the TGI (SNB-19 CNS) is reported as greater than 100 µM. For the same compound, the TGI (DU-145 prostate) was greater than 100 µM, the TGI (OVCAR-3 ovarian) was greater than 100 µM and the TGI (MDA-N) was greater than 100 µM. For the same compound, the TGI (EKVX NSCLC) was greater than 100 µM, the TGI (KM12 colon) was greater than 100 µM and the TGI (RPMI-8226 leukemia) was greater than 67.9 µM. The TGI (IGROV1 ovarian) was greater than 100 µM and the TGI (A498 renal) was greater than 100 µM.
In the case of Cc1ccncc1.F[B-](F)(F)F.[Pt+2].c1ccc(-c2cccc(-c3ccccn3)n2)nc1, the TGI (M14 melanoma) is reported as 13.5 µM, the TGI (ACHN renal) is reported as 25.1 µM and the TGI (SNB-19 CNS) is reported as greater than 66.7 µM. The TGI (DU-145 prostate) was greater than 100 µM, the GI50 (OVCAR-3 ovarian) was 0.835 µM and the TGI (OVCAR-3 ovarian) was greater than 44.3 µM. The TGI (MDA-N) was greater than 100 µM, the TGI (EKVX NSCLC) was greater than 73.5 µM and the TGI (KM12 colon) was 39.5 µM. For the same compound, the TGI (RPMI-8226 leukemia) was 32.9 µM, the TGI (IGROV1 ovarian) was greater than 30.6 µM and the TGI (A498 renal) was 45.1 µM.
O=CC(O)C(O)C(O)C(O)C(=O)NCCCCCCCCCCCCNC(=O)C(O)C(O)C(O)C(O)C=O (stereo not given) showed a TGI (M14 melanoma) greater than 100 µM, a TGI (ACHN renal) greater than 100 µM and a TGI (SNB-19 CNS) greater than 100 µM. For the same compound, the TGI (DU-145 prostate) was greater than 100 µM, the TGI (OVCAR-3 ovarian) was greater than 100 µM and the TGI (MDA-N) was greater than 100 µM. It also gave a TGI (EKVX NSCLC) greater than 100 µM, a TGI (KM12 colon) greater than 100 µM and a TGI (IGROV1 ovarian) greater than 100 µM. For the same compound, the TGI (A498 renal) was greater than 100 µM.
For C(=C\c1cccc(/C=C/c2ccccn2)n1)/c1ccccn1, the TGI (M14 melanoma) was greater than 100 µM, the TGI (ACHN renal) was greater than 100 µM and the TGI (SNB-19 CNS) was greater than 100 µM. The TGI (DU-145 prostate) was greater than 100 µM, the TGI (OVCAR-3 ovarian) was greater than 100 µM and the TGI (MDA-N) was greater than 100 µM. It also gave a TGI (EKVX NSCLC) greater than 100 µM, a TGI (KM12 colon) greater than 100 µM and a TGI (RPMI-8226 leukemia) greater than 100 µM. The TGI (IGROV1 ovarian) was greater than 100 µM and the TGI (A498 renal) was 71.7 µM.
CCc1c(Cc2cccc3ccccc23)n2c(nc1=O)SCC2OCCO (stereo not given) showed a TGI (M14 melanoma) greater than 100 µM, a TGI (ACHN renal) greater than 100 µM and a TGI (SNB-19 CNS) greater than 100 µM. It also gave a TGI (DU-145 prostate) greater than 100 µM, a TGI (MDA-N) greater than 100 µM and a TGI (EKVX NSCLC) greater than 100 µM. It also gave a TGI (KM12 colon) greater than 100 µM, a TGI (RPMI-8226 leukemia) of 94.4 µM and a TGI (IGROV1 ovarian) greater than 100 µM. The TGI (A498 renal) was greater than 100 µM.
In the case of CN1CCN(c2c(Cl)cc(Cl)c3[nH]c4ccccc4c(=O)c23)CC1, the TGI (M14 melanoma) is reported as 19.5 µM, the TGI (ACHN renal) is reported as 17 µM and the TGI (SNB-19 CNS) is reported as 19.7 µM. For the same compound, the TGI (DU-145 prostate) was 16.6 µM, the TGI (OVCAR-3 ovarian) was 33.5 µM and the TGI (MDA-N) was 20.7 µM. It also gave a TGI (EKVX NSCLC) of 32.6 µM, a TGI (KM12 colon) of 23 µM and a TGI (RPMI-8226 leukemia) of 56.8 µM. For the same compound, the TGI (IGROV1 ovarian) was 20.3 µM and the TGI (A498 renal) was 5.44 µM.
In the case of CCCCc1cc2c(C)cc(=O)oc2c(O)c1O, the TGI (M14 melanoma) is reported as 85 µM, the TGI (ACHN renal) is reported as 94 µM and the TGI (SNB-19 CNS) is reported as greater than 100 µM. It also gave a TGI (DU-145 prostate) greater than 100 µM, a TGI (OVCAR-3 ovarian) of 82 µM and a TGI (MDA-N) greater than 100 µM. For the same compound, the TGI (EKVX NSCLC) was greater than 100 µM, the TGI (KM12 colon) was 64.3 µM and the TGI (RPMI-8226 leukemia) was 43.3 µM. The TGI (IGROV1 ovarian) was 51.7 µM and the TGI (A498 renal) was 72 µM.
In the case of CC(=O)/C(=C/n1c(=S)[nH]c2ccccc21)C(=O)Nc1ccccc1C, the TGI (M14 melanoma) is reported as greater than 100 µM, the TGI (ACHN renal) is reported as greater than 100 µM and the TGI (SNB-19 CNS) is reported as greater than 100 µM. The TGI (DU-145 prostate) was greater than 100 µM, the TGI (OVCAR-3 ovarian) was greater than 100 µM and the TGI (MDA-N) was greater than 100 µM. It also gave a TGI (EKVX NSCLC) greater than 100 µM, a TGI (KM12 colon) greater than 100 µM and a TGI (IGROV1 ovarian) greater than 100 µM. For the same compound, the TGI (A498 renal) was greater than 100 µM.
With CC[N+](C)(CC)CCC(O)(c1ccccc1)c1ccccc1 the TGI (M14 melanoma) was greater than 100 µM, the TGI (ACHN renal) was greater than 100 µM and the TGI (SNB-19 CNS) was greater than 100 µM. It also gave a TGI (DU-145 prostate) greater than 100 µM, a TGI (OVCAR-3 ovarian) greater than 100 µM and a TGI (MDA-N) greater than 100 µM. It also gave a TGI (EKVX NSCLC) greater than 100 µM, a TGI (KM12 colon) greater than 100 µM and a TGI (RPMI-8226 leukemia) greater than 100 µM. For the same compound, the TGI (IGROV1 ovarian) was greater than 100 µM and the TGI (A498 renal) was greater than 100 µM.
COc1cc2nc(-c3ccc4ccccc4c3)[nH]c(=O)c2cc1OC showed a TGI (M14 melanoma) greater than 100 µM, a TGI (ACHN renal) greater than 100 µM and a TGI (SNB-19 CNS) of 97.2 µM. For the same compound, the TGI (DU-145 prostate) was greater than 100 µM, the TGI (OVCAR-3 ovarian) was greater than 100 µM and the TGI (MDA-N) was greater than 100 µM. It also gave a TGI (EKVX NSCLC) greater than 100 µM, a TGI (KM12 colon) greater than 100 µM and a TGI (RPMI-8226 leukemia) greater than 100 µM. It also gave a TGI (IGROV1 ovarian) greater than 100 µM and a TGI (A498 renal) greater than 100 µM.
With CN(C)c1nc(N(C)C)nc(N(C)C23CC4CC(CC(C4)C2)C3)n1 the TGI (M14 melanoma) was greater than 100 µM, the TGI (ACHN renal) was greater than 100 µM and the TGI (SNB-19 CNS) was 96 µM. It also gave a TGI (DU-145 prostate) greater than 100 µM, a TGI (OVCAR-3 ovarian) greater than 100 µM and a TGI (MDA-N) of 53.7 µM. It also gave a TGI (EKVX NSCLC) greater than 100 µM, a TGI (KM12 colon) greater than 100 µM and a TGI (RPMI-8226 leukemia) of 74.9 µM. It also gave a TGI (IGROV1 ovarian) of 58.8 µM and a TGI (A498 renal) greater than 100 µM.
Cc1nc2c3c(ncn2n1)Oc1c(c(-c2ccccc2)nn1-c1ccccc1)C3c1ccc(Cl)cc1 (stereo not given) showed a TGI (M14 melanoma) greater than 100 µM, a TGI (ACHN renal) greater than 100 µM and a TGI (SNB-19 CNS) greater than 100 µM. It also gave a TGI (DU-145 prostate) greater than 100 µM, a TGI (OVCAR-3 ovarian) greater than 100 µM and a TGI (MDA-N) greater than 100 µM. For the same compound, the TGI (EKVX NSCLC) was greater than 100 µM, the TGI (KM12 colon) was greater than 100 µM and the TGI (RPMI-8226 leukemia) was greater than 100 µM. It also gave a TGI (IGROV1 ovarian) greater than 100 µM and a TGI (A498 renal) greater than 100 µM.
